Measured values: US20250027956A1, “Improved Gamma-Secretase Inhibitor Screening Assays” (VIB VZW, priority 2021, published 2025)

What was measured:
PSENdKO cells [1] = assay: Confocal immunofluorescence (compartment size, Mander's colocalization, filipin) in PSENdKO cells; format: cell-based, mouse
Protocol: For OSW-1 (30310-1, Sanbio/Cayman Chemical), cells were treated overnight with 10 nM. Diluent treatment alone (in most cases DMSO, water for the cyclodextrin) was used as vehicle control. KO cell lines: PSEN1 and 2 KO cell lines (PSENdKO) cell lines were established as described in ([…] al 2020). Briefly, the web-based CRISPR design tool was used to select the sequence to be targeted in mouse PSEN1 and PSEN2 ([NT] and [NT], respectively). Oligo pairs encoding guide sequences (obtained from Integrated DNA Technologies, IDT) were annealed and ligated into the pX330 plasmid (Addgene) according to the Zhang's laboratory protocol (https://www.addgene.org/crispr/zhang/). MEF cells were then transfected with the pX330-PSEN1 and PX330-PSEN2, using Fugene HD (Promega), in accordance with the manufacturer protocol. Selection of PSENdKO clones was achieved through serial dilution and confirmed by WB analysis. Further depletion of APP in different PSENdKO clones was achieved through electroporation of RNP complexes. Single guide RNA (sgRNAs) were designed to either target exon 2 ([NT]) or exon 3 ([NT]). The Neon Transfection System (ThermoFisher Scientific, one pulse, 1650 V, 20 ms) was used to electroporate 150 000 cells with 10 pmol of Cas 9 (IDT) and 20 pmol of single guide RNA (IDT). As above, cells were amplified and selection of independent APPKO clones was performed with serial dilutions and WB characterization. All clones of interest were sequenced using Sanger sequencing. […] Primary antibodies diluted in the same blocking buffer were incubated overnight at 4° C. Following PBS washing steps, (goat- or donkey-) secondary antibodies conjugated with Alexa fluor dyes (Alexa 488, 568, or 647, all ThermoFisher Scientific) diluted in the blocking buffer were incubated for 1 h, RT. Coverslips were then mounted with Mowiol (Sigma). When cholesterol labelling was performed, fixed cells were treated with 200 μg·ml-1 filipin (F4767, Sigma) for 2 h at RT, prior to permeabilization. Acquisition: Z stack images (spacing 2 μm), or a median plan were acquired on a Nikon 1AR connected to an inverse Nikon Ti-2000 equipped with an oil-immersion plan APO 60× objective lenses with 1.40 NA. Data were collected using Nikon Imaging Software. […] Image analysis: All image analysis was done using Image J software (Schindelin et al 2012; Schneider et al 2012). To measure the area of the organelle of interest (early endosomes-EEA1; lysosomes-Lamp1; retromer-VPS35 . . . ), segmentation was realized using automatic thresholding. The following masks were used: Mean (EEA1), Ostu (Lamp1), Intermodes (VPS35). Overlap of signal of interests were quantified with Manders colocalisation index (Plugin Jacob, (Bolte and Cordelieres 2006)). When indicated, co-localization data was normalized to the reference group for multiple comparisons.

[2] = test system: cultured skin fibroblasts of NPC patients; settings: cited from earlier work
WT MEFs = assay: Lysosomal Ca2+ content, Fura-2AM loaded cells challenged with GPN, WT cells; format: cell-based, mouse
Protocol: Cells were treated with the following drugs, usually for 4 days, unless otherwise stated: DAPT (2634/10, Tocris) 1 μM final; Inhibitor X (565771-250 μg, Calbiochem/Merck) 1 μM final; β-Secretase Inhibitor IV (565788, Calbiochem/Merck) 2 μM final, (2-Hydroxypropyl)-γ-cyclodextrin (H125-5G-I, Sigma Aldrich) 1 mM final; Adam 10 inhibitor G1254023X (SML0789, Sigma Aldrich) 3 μM final. For OSW-1 (30310-1, Sanbio/Cayman Chemical), cells were treated overnight with 10 nM. Diluent treatment alone (in most cases DMSO, water for the cyclodextrin) was used as vehicle control.
Cytosolic response: Ca2+ responses were measured as previously described in Coen et al 2012. Briefly, cells (0.005 to 0.01×106) were seeded two to three days prior to the experiment on glass coverslips (631-0153, VWR). On the day of recording, cells were rinsed three times in Ringer solution (155 mM NaCl, 5 mM KCl, 2 mM MgCl2, 2 mM CaCl2, 10 mM Glucose, 10 mM HEPES, 2 mM NaH2PO4·2H20; pH 7.3), and loaded 1 μM Fura2-AM (F1221, ThermoFisher Scientific) for 30 min (RT). Cells were rinsed three times and left to equilibrate for at least 15-20 min (RT). All acquisitions were carried out in Ringer Ca2+ free solution (same as above, albeit the 2 mM CaCl2 were replaced by 2 mM EGTA). During experiments, cells were challenged with different drugs, such as Thapsigargin (T7459, ThermoFisher Scientific, 1 μM final), GPN (ab145914, abcam, 100 μM final for MEFs, 500 μM for neurons), MLSA1 (Cat. No. 4746, Tocris, 20 μM final) or lonomycin (10634, Sigma Aldrich, 1 μM final). Images were acquired every 5 sec for 8-10 min, using an Olympus IX81 using an UAPO/340 40× oil objective (1.35 NA), operated by CellR Software (Olympus). Recordings were done using 340 and 380 nm excitation, and 530 nm emission filters. Image processing was performed using Image J Software (Schindelin et al 2012; Schneider et al 2012). Briefly, cells were segmented manually and fluorescence intensities were measured over time. Fura-2 signals were corrected to obtain ΔF/F0 (F0 being the initial signal recorded). For each cell, the area under the curve, corresponding to the aforementioned stimulation, was measured using GraphPad Prism.

[3] = test system: NPC1−/− neural stem cells; settings: cited from earlier work
LE/Ly cholesterol = settings: cited from earlier work
NPC disease models = settings: cited from earlier work
Npc1 cats = settings: intrathecal 120 mg every 2 weeks; cited from earlier work
Npc1 mice = settings: oral; cited from earlier work
cats = settings: cited from earlier work
NPC patients = settings: clinical trials; cited from earlier work
PSENdKO cells [4] = assay: Lysosomal Ca2+ content, Fura-2AM loaded cells challenged with GPN, PSENdKO cells; format: cell-based, mouse; parameters: lysosomal Ca2+ content: dose or concentration left out as unconfirmed
From the text: Diluent treatment alone (in most cases DMSO, water for the cyclodextrin) was used as vehicle control.
Briefly, the web-based CRISPR design tool was used to select the sequence to be targeted in mouse PSEN1 and PSEN2 (i.e. 5′-[…]-3′ and 5′-[…]-3′, respectively). Oligo pairs encoding guide sequences (obtained from Integrated DNA Technologies, IDT) were annealed and ligated into the pX330 plasmid (Addgene) according to the Zhang's laboratory protocol (https://www.addgene.org/crispr/zhang/). MEF cells were then transfected with the pX330-PSEN1 and PX330-PSEN2, using Fugene HD (Promega), in accordance with the manufacturer protocol. Selection of PSENdKO clones was achieved through serial dilution and confirmed by WB analysis. Further depletion of APP in different PSENdKO clones was achieved through electroporation of RNP complexes. […]
Cells were rinsed three times and left to equilibrate for at least 15-20 min (RT). […] Briefly, cells were segmented manually and fluorescence intensities were measured over time. Fura-2 signals were corrected to obtain ΔF/F0 (F0 being the initial signal recorded). For each cell, the area under the curve, corresponding to the aforementioned stimulation, was measured using GraphPad Prism.

Npc1-null cells = settings: cited from earlier work
[5] = overnight, 10 nM, data not shown

With `Cc1ccc(NC(=O)c2ccc(CN3CCN(C)CC3)cc2)cc1Nc1nccc(-c2cccnc2)n1` [Imatinib] the “APP-CTFs in VPS35-positive organelles” value (PSENdKO cells [1]) was “significant decrease of APP-CTFs in VPS35-positive organelles” and the VPS35-LAMP1 co-localization (PSENdKO cells [1]; vs DMSO) was “lowered VPS35-LAMP1 co-localization”.

For `O=C(CCCCCCC(=O)Nc1ccccc1)NO` [Vorinostat, suberanilohydroxamic acid], the “accumulation of lipids in the lysosomes” value [2] is given as “reduces the accumulation of lipids in the lysosomes”.

For `CO/C1=C\C(C)=C\[C@@H](C)[C@@H](O)[C@@H](C)C/C(C)=C/C=C/[C@H](OC)[C@@H]([C@@H](C)[C@@H](O)[C@H](C)[C@@]2(O)C[C@@H](O)[C@H](C)[C@@H](C(C)C)O2)OC1=O` [bafilomycin1], the “lysosomal Ca2+ content” value (WT MEFs; full alkalinization, compared with PSENdKO cells) was “equally affected lysosomal Ca2+ content as observed in PSENdKO cells”.

In the case of `CCCC(CCC)C(=O)O` [Valproic acid], the “benefit in NPC1−/− neural stem cells” value [3] is given as “some benefit”.

For `CCNC(=O)c1noc(-c2cc(C(C)C)c(O)cc2O)c1-c1ccc(CN2CCOCC2)cc1` [AUY922], the “clearance of cholesterol from LE/Ly” value (LE/Ly cholesterol) is listed as “clearance of cholesterol from LE/Ly”.

In the case of `[O-][n+]1cccc(/C(Cl)=N/OC[C@H](O)CN2CCCCC2)c1` [arimoclomol], the “clearance of cholesterol from LE/Ly” value (LE/Ly cholesterol) is given as “same effect”.

In the case of `CCc1cc(C(N)=O)ccc1-n1nc(C(C)C)c2c(-n3cnc(-c4cnn(C)c4)c3)ccnc21` [TAS-116], the “clearance of cholesterol from LE/Ly” value (LE/Ly cholesterol) is given as “clearance of cholesterol from LE/Ly”.

For `CC(/C=C/C(=O)NO)=C\[C@@H](C)C(=O)c1ccc(N(C)C)cc1` [trichostatin A], the cholesterol accumulation (NPC disease models) is listed as “efficiently correct cholesterol accumulation”.

In the case of `CC1(C)CC(=O)c2c(C(F)(F)F)nn(-c3ccc(C(N)=O)c(N[C@H]4CC[C@H](O)CC4)c3)c2C1` [SNX2112], the “clearance of cholesterol from LE/Ly” value (LE/Ly cholesterol) is listed as “clearance of cholesterol from LE/Ly”.

For “2-Hydroxypropyl-beta-cyclodextrin [HP-beta-CD]”, the “neurological dysfunction and lipid accumulation in neurons” value (Npc1 cats) is listed as “reduced neurological dysfunction and lipid accumulation in neurons”.

In the case of `CCCCN1C[C@H](O)[C@@H](O)[C@H](O)[C@H]1CO` [Miglustat, N-butyl-deoxynojirimycin], the “accumulation of gangliosides in the brain” value (Npc1 mice) is listed as “reduced the accumulation of gangliosides in the brain”, the increase of lifespan (Npc1 mice) is listed as “approximately 33%” and the “neurological progression of the disease” value (Npc1 mice) is listed as “slowed the neurological progression of the disease”. For the same compound, the “accumulation of gangliosides in the brain” value (cats) was “reduced accumulation of gangliosides in the brain”, the increase of lifespan (cats) was “approximately 74%” and the “onset of neurological symptoms” value (cats) was “delayed onset of neurological symptoms”. The “neurological outcome (e.g. dysphagia, supranuclear gaze palsy)” value (NPC patients) was “neurological improvement or stabilization”.

In the case of `CC(C)c1cc(-c2n[nH]c(=O)n2-c2ccc3c(ccn3C)c2)c(O)cc1O` [Ganetespib], the “clearance of cholesterol from LE/Ly” value (LE/Ly cholesterol) is given as “clearance of cholesterol from LE/Ly”.

For `Cc1[nH]c2ccccc2c1CCNCc1ccc(/C=C/C(=O)NO)cc1` [LBH589], the cholesterol accumulation (NPC disease models) is listed as “efficiently correct cholesterol accumulation”.

In the case of `CC(C)c1cc(C(=O)N2Cc3ccc(CN4CCN(C)CC4)cc3C2)c(O)cc1O` [AT13387], the “clearance of cholesterol from LE/Ly” value (LE/Ly cholesterol) is given as “clearance of cholesterol from LE/Ly”.

With 2-hydroxypropyl-γ-cyclodextrin [HPγCD] the “lysosomal Ca2+ content” value (PSENdKO cells [4]; 4 days) was “fully restored lysosomal Ca2+ content”, the EEA1 area (PSENdKO cells [1]; 1 mM, 4 days) was “reduced EEA1 area” and the “accumulation of membrane-tethered APP fragments in Lamp1-positive LE/Lys” value (PSENdKO cells [1]; 1 mM, 4 days) was “strongly reduced”. The “colocalization of VPS35 with Lamp1” value (PSENdKO cells [1]; 1 mM, 4 days) was “decreased colocalization of VPS35”, the “filipin staining in Lamp1-positive LE/Lys” value (PSENdKO cells [1]; 1 mM, 4 days) was “Reduced filipin staining” and the “intracellular free cholesterol levels and lysosome changes” value (Npc1-null cells) was “reduce intracellular free cholesterol levels and normalize the lysosome changes”.

In the case of `COc1ccc(C(=O)O[C@H]2[C@H](O[C@@H]3[C@@H](OC(C)=O)[C@H](O[C@H]4C[C@H]5[C@@H]6CC=C7C[C@@H](O)CC[C@]7(C)[C@H]6CC[C@]5(C)[C@@]4(O)[C@H](C)C(=O)CCC(C)C)OC[C@@H]3O)OC[C@@H](O)[C@@H]2O)cc1` [OSW-1], the “lysosomal Ca2+ dysfunction” value (PSENdKO cells [4]; [5]) is reported as “nor did it rescue lysosomal Ca2+ dysfunction” and the lysosomal cholesterol staining (PSENdKO cells [1]; [5]) is reported as “did not decrease lysosomal cholesterol staining”.

For `Nc1ccc(C(=O)Nc2cccc(-c3nc(N4CCOCC4)c4oc5ncccc5c4n3)c2)cn1` [YM201636], the “Lysosomal Ca2+ levels” value (WT MEFs; WT cells, 2 μM, 2 h, 100 μM GPN) was “reduced”.

With `CC(C)C[C@H](NC(=O)[C@H](Cc1ccccc1)C[C@@H](O)[C@H](Cc1ccccc1)NC(=O)OC(C)(C)C)C(=O)N[C@@H](Cc1ccccc1)C(N)=O` [InhibitorX] the “lysosomal Ca2+ content” value (WT MEFs; WT cells, 1 μM, 4 days, normalized to DMSO) was “reduced”.

In the case of `C=CCNC1=C2C[C@@H](C)C[C@H](OC)[C@H](O)[C@@H](C)/C=C(\C)[C@H](OC(N)=O)[C@@H](OC)/C=C\C=C(/C)C(=O)NC(=CC1=O)C2=O` [17-AAG], the “clearance of cholesterol from LE/Ly” value (LE/Ly cholesterol) is listed as “clearance of cholesterol from LE/Ly”.
